Entries after “also recorded” stand apart in the source; their conditions may differ.
How the values were obtained:
20-HETE [1] = experiment: 20-HETE formation in electrically stimulated skeletal (TA) muscle of rats; type: in vivo, rat; settings: 7 days of electrical stimulation; chronic treatment
Experimental: (§1) Experimental protocols and tissue preparation: After a 24-h recovery period, the implanted stimulator was activated by momentary closure of the magnetic reed switch using a small hand-held magnet. […] Contractions of the extensor digitorum longus (EDL) and tibialis anterior (TA) muscles were automatically initiated at 9 AM each day and sustained for 8 h/day over a consecutive 7-day period. At the end of the stimulation period, the animals were euthanized by an overdose of pentobarbital sodium (100 mg/kg ip), and the EDL and TA muscles were harvested for analysis as previously described (Greene A S et al., Hypertension 15: 779-783, 1990; and Parmentier J H et al., Hypertension 37: 623-629, 2001).
The rats were divided in four groups. […] This dose was chosen based on our previous results (Kehl F et al., Am J Physiol Heart Circ Physiol 282: H1556-H1565, 2002).
To determine the contribution of VEGF to the angiogenesis induced by electrical stimulation, six rats in group 3 were treated with 3 mg/kg ip injections of a monoclonal VEGF-neutralizing antibody (Texas Biotechnology; Houston, Tex.) during the period of electrical stimulation. The protocol for administration of VEGF-neutralizing antibody was modified from Zheng W et al. (Circ Res 85: 192-198, 1999), and this dose was based on our previous results (Amaral S L et al., Microcirculation 8: 57-67, 2001). After the stimulation period was started, the rats received intraperitoneal injections on days 3, 5, and 7 (0.6 mg/100 g).
Muscle preparations for measurement of 20-HETE: The 100-200 mg of frozen TA muscle were homogenized in a solution containing 1 ml of acidified water and 50 μl of an internal standard, WIT-002, which was synthesized and kindly provided by Taisho Pharmaceutical. Ethyl acetate (3 ml, Fisher Scientific; Pittsburgh, Pa.) was added to the mixture and gently vortexed. The homogenized tissues were then centrifuged at 3,000 revolutions/min for 2 min. With the use of a glass Pasteur pipet, the top layer was removed and transferred to a sterile glass vial, and the samples were dried under nitrogen and stored at −80° C.
Labeling of samples and fluorescent detection of 20-HETE: Detection of 20-HETE was performed as previously described (Ma Y H et al., Am J Physiol Regul Integr Comp Physiol 267: R579-R589, 1994). Samples, which were extracted and dried under argon, were resuspended in 20 μl of acetonitrile containing 36.4 mM 2-(2,3-napthalimino)ethyl trifluoromethanesulfonate, and N,N-diisopropylethylamine (10 μl) was added as a catalyst. The sample was reacted for 30 min at room temperature, dried under argon, resuspended in 1 ml of 40% acetonitrile-water, and applied to a Sep-Pak Vac column. The column was washed with 6 ml of 50% acetonitrile-water solution to remove unreacted dye, eluted with 500 μl of ethyl acetate, dried under argon, and resuspended in 100 μl of the HPLC mobile phase [methanol-water-acetic acid, 82:18:0.1 (vol/vol)]. A 25-μl aliquot of the derivatized sample was separated on a 4.6×250-mm Symmetry C18 reverse-phase HPLC column (Waters) isocratically at a rate of 1.3 ml/min using methanol-water-acetic acid (82:18:0.1 (vol/vol)) as the mobile phase. Fluorescence intensity monitored using an in-line fluorescence detector (model number L-7480, Hitachi; Naperville, Ill.) at medium gain sensitivity. The amount of 20-HETE in the sample was determined by comparing the area of the 20-HETE peak with that of the internal standard (WIT-002).

[2] = test system: extensor digitorum longus (EDL) and tibialis anterior (TA) muscles; experiment: Vessel density of EDL and TA muscles after 7 days of electrical stimulation; type: in vivo, rat
Experimental: as §1
Tissue harvest and morphological analysis of vessel density: The stimulated and contralateral muscles were removed, weighed, and rinsed in physiological salt solution. A 300-mg sample was taken from the rostral portion of the TA muscle and frozen in liquid nitrogen for Western blot (100 mg) and HPLC (200 mg) analysis for measurement of VEGF protein expression and 20-HETE formation, respectively. The remaining TA and EDL muscles were lightly fixed in a 0.25% formalin solution overnight. The muscles were sectioned via a manual microtome to a thickness of about 100 μm by securing the tendons and slicing parallel to the longitudinal orientation of the muscle fibers. From every animal, two slices of each EDL muscle and three slices of each TA muscle were made. The slices were than immersed for 2 h in a solution of 25 μg/ml rhodamine-labeled Griffonia simplicifolia I (GS-I) lectin (Sigma; St. Louis, Mo. (Greene A S et al., Hypertension 15: 779-783, 1990)). Immediately after this 2-h exposure to GS-I lectin, the muscles were rinsed in physiological solution. The rinsing procedure was repeated after 15 and 30 min, and the muscles were rinsed in physiological saline solution for 12 h (overnight, at 4° C.). On the next day, the slices were mounted on microscope slides with a water-soluble mounting medium consisting of toluene and acrylic resin (SP ACCU-MOUNT 280, Baxter Scientific).
The labeled sections were visualized using a video fluorescent microscope system (Olympus ULWD CD Plan, ×20 objective, 1.6 cm working distance and 0.4 numerical aperture) with epi-illumination, as previously described (Parmentier J H et al., Hypertension 37: 623-629, 2001). In the present study, 10-15 and 20-25 representative fields were selected for study from each EDL and TA muscle slice, respectively. Each field was converted to a digitized image (DT2801 Data Translation; Marlboro, Mass.) and stored as an 8-bit/pixel image file with a resolution of 512×512 pixels. Morphometric analysis of the scanned histochemical sections was done as previously described (Parmentier J H et al., Hypertension 37: 623-629, 2001).
Data analysis and statistics: For each muscle, the vessel counts of all the selected fields (10-15 scans×2 slices for each EDL muscle; 20-25 scans×3 slices for each TA muscle) were averaged to a single vessel density. Vessel density was expressed in terms of the mean number of vessel-grid intersections per microscope field (0.224 mm^2). For each experimental group, the measured vessel density and 20-HETE formation of the stimulated muscle was compared with its unstimulated counterpart as well as with age-matched controls. All values are presented as means±SE. The significance of differences in values measured in the same animal was evaluated using a two-factor ANOVA (drug×stimulation) with repeated measures on one factor (stimulation). Significant differences were further investigated using a post hoc test (Tukey's).

VEGF = experiment: Western blot of VEGF protein expression in TA muscle; type: in vivo, rat
Experimental: Western blot analysis to detect the presence of VEGF protein: The 100-mg TA muscle specimens were homogenized, and the protein was suspended in potassium buffer (10 mM). Five micrograms of protein (as determined by a protein assay kit, Bio-Rad; Hercules, Calif.) from the TA and a tumor cell line known to express VEGF at high levels (C6, American Type Culture Collection, 107-CCL) were separated on a 12% denaturing polyacrylamide gel. The gels were transferred to a nitrocellulose membrane, which was blocked overnight in 5% nonfat dry milk diluted in Tris-buffered saline (50 mM Tris and 750 mM NaCl, pH 8) with 0.08% Tween 20 (Bio-Rad). The blots were then incubated with a […] antibody to a peptide derived from the human VEGF sequence (1:1,000 dilution, clone G143-850, Pharmingen) for 2 h at room temperature. Washed blots were then incubated with goat anti-mouse secondary antibody at a dilution of 1:1,000 for 1 h at room temperature and then subjected to a SuperSignal West Dura chemiluminescence substrate (Pierce; Rockford, Ill.) detection system. Membranes were exposed to X-ray film (Fuji Medical; Stamford, Conn.) for 15 to 30 s and developed using a Kodak M35 X-Omat processor. For the quantitative VEGF analysis, film was always exposed for a period of time that ensured that all signals were within the linear range of the detection of the film. The VEGF band intensity was quantified using a morphometry imaging system (Metamorph, Universal Imaging; West Chester, Pa.), and values are expressed as a percentage of the C6 tumor cell standard.

20-HETE [3] = settings: cited from earlier work
[4] = chronic treatment, 7 days electrical stimulation

With Nn1nnc2ccccc21 [ABT, 1-aminobenzotriazole] the “effect on the increase of 20-HETE formation induced by electrical stimulation” value (20-HETE [1]) was “blocked”, the “effect on the increase in vessel density (angiogenesis) induced by electrical stimulation” value ([2]; 7 days, HET0016 2 mg kg−1 day−1, ABT 50 mg kg−1 day−1) was “blocked; also recorded: attenuated” and the “vessel density, EDL, unstimulated side” value ([2]; chronic treatment, 7 days) was 111±7.4 number of vessel intersections. For the same molecule, the “vessel density, TA, unstimulated side” value ([2]; chronic treatment, 7 days) was 99.7±4.72 number of vessel intersections, the “vessel density, EDL, stimulated side” value [2, 4] was 121±4.35 number of vessel intersections and the “vessel density, TA, stimulated side” value [2, 4] was 119.5±4.51 number of vessel intersections. For the same molecule, the “effect on increases in VEGF protein expression induced by electrical stimulation” value (VEGF; 7 days stimulation) was “did not block”, the “effect on baseline VEGF expression” value (VEGF; 7 days treatment) was “Neither HET0016 nor ABT had any effect” and the “ability to reduce 20-HETE levels in vivo” value (20-HETE [3]) was “reduce 20-HETE levels in vivo”.
